Data as given in BigSolDB 2.1.

Nc1ccc(S(=O)(=O)Nc2ncccn2)cc1
solubility (mole fraction)
Details | 293.15 K | 298.15 K | 303.15 K | 308.15 K | 313.15 K
in ethanol | 6.26e-06 | 7.74e-06 | 9.46e-06 | 1.17e-05 | 1.38e-05
in water | 3.8e-07 | 4.81e-07 | 6.49e-07 | 8.7e-07 | 1.14e-06
